These results are taken from ChEMBL document CHEMBL5357084, “Structure-Guided Discovery of Diverse Cytotoxic Dimeric Xanthones/Chromanones from Penicillium chrysogenum C-7-2-1 and Their Interconversion Properties” (J Nat Prod, 2024).

In assay [1] the test system is A-375. Kind of assay: Cytotoxicity against human A-375 cells […] at 50 uM measured after 48 hrs by MTT assay relative to control. The class given is functional. In general terms: Formazan colour is commonly taken as a measure of viable cells.
The test system of assay [2] is Caco-2. Description: Cytotoxicity against human Caco-2 cells assessed as inhibition of cell growth measured after 48 hrs by MTT assay. Conditions: Caco-2, 48 h; call rule not given here. In kind it is functional, cell-based.
Assay [3] has as its system NCI-H23. Kind of assay: Induction of cell cycle arrest in human NCI-H23 cells assessed as accumulation of cells at S phase at 10 uM incubated for 24 hrs by PI staining based flow cytometry analysis (reference value: 15.45+/-1.79%). The class given is functional.
The subject of assay [4] is NCI-H23. Kind of assay: Induction of cell cycle arrest in human NCI-H23 cells assessed as accumulation of cells at G2/M phase at 5 uM incubated for 24 hrs by PI staining based flow cytometry analysis (reference value: 27.60+/-0.83%). In kind it is functional. (In flow cytometry, cells or beads pass a laser one at a time.)
Assay [5] deals with NCI-H23. Kind of assay: Induction of cell cycle arrest in human NCI-H23 cells assessed as accumulation of cells at SubG1 phase at 5 to 10 uM incubated for 24 hrs by PI staining based flow cytometry analysis (reference value: 0%). Conditions: dose 5-10 µM. In kind it is functional.
Assay [6] relates to BEAS-2B. Kind of assay: Cytotoxicity against human BEAS-2B cells assessed as inhibition of cell growth at 50 uM measured after 48 hrs by MTT assay relative to control. In kind it is functional.
Assay [7] has as its system NCI-H23. Kind of assay: Induction of cell cycle arrest in human NCI-H23 cells assessed as accumulation of cells at S phase at 5 uM incubated for 24 hrs by PI staining based flow cytometry analysis (reference value: 15.45+/-1.79%). In kind it is functional.
Assay [8] deals with SW-620. Kind of assay: Cytotoxicity against human SW620 cells assessed as inhibition of cell growth measured after 48 hrs by MTT assay. The class given is functional, cell-based. Conditions: sw-620.
The test system of assay [9] is NCI-H23. Kind of assay: Cytotoxicity against human NCI-H23 cells […] at 50 uM measured after 48 hrs by MTT assay relative to control. The class given is functional.
The test system of assay [10] is Caco-2. Description: Cytotoxicity against human Caco-2 cells assessed as inhibition of cell growth at 50 uM measured after 48 hrs by MTT assay relative to control. In kind it is functional. Also noted: scale not given: the % may be the effect or the level left.
The subject of assay [11] is NCI-H23. Description: Induction of apoptosis in human NCI-H23 cells assessed as apoptosis rate at 10 uM incubated for 24 hrs by annexin V-FITC and propidium iodide staining based flow cytometry analysis (reference value: 6.88+/-2.63%). In kind it is functional.
Assay [12] relates to NCI-H23. Description: Induction of cell cycle arrest in human NCI-H23 cells assessed as accumulation of cells at G1 phase at 5 uM incubated for 24 hrs by PI staining based flow cytometry analysis (reference value: 56.95+/-1.02%). The class given is functional.
Assay [13] deals with A-375. Kind of assay: Cytotoxicity against human A-375 cells assessed as inhibition of cell growth measured after 48 hrs by MTT assay. The class given is functional, cell-based. Conditions: A-375, 48 h.
Assay [14] concerns NCI-H23. Description: Cytotoxicity against human NCI-H23 cells assessed as inhibition of cell growth measured after 48 hrs by MTT assay. In kind it is functional, cell-based. Conditions: NCI-H23, 48 h.
The test system of assay [15] is NCI-H1299. Kind of assay: Cytotoxicity against human NCI-H1299 cells assessed as inhibition of cell growth measured after 48 hrs by MTT assay. The class given is functional, cell-based. Conditions: NCI-H1299, 48 h.
The test system of assay [16] is NCI-H23. Kind of assay: Induction of apoptosis in human NCI-H23 cells assessed as apoptosis rate incubated for 24 hrs by annexin V-FITC and propidium iodide staining based flow cytometry analysis. The class given is functional, cell-based. Conditions: dose 5-10 µM.
Assay [17] deals with NCI-H23. Kind of assay: Induction of cell cycle arrest in human NCI-H23 cells assessed as accumulation of cells at G2/M phase at 10 uM incubated for 24 hrs by PI staining based flow cytometry analysis (reference value: 27.60+/-0.83%). In kind it is functional.
For assay [18], the system named is SW-620. Description: Cytotoxicity against human SW620 cells assessed as inhibition of cell growth at 50 uM measured after 48 hrs by MTT assay relative to control. In kind it is functional.
In assay [19] the test system is NCI-H23. Description: Induction of cell cycle arrest in human NCI-H23 cells assessed as accumulation of cells at G1 phase at 10 uM incubated for 24 hrs by PI staining based flow cytometry analysis (reference value: 56.95+/-1.02%). The class given is functional.
The subject of assay [20] is NCI-H23. Kind of assay: Induction of apoptosis in human NCI-H23 cells assessed as apoptosis rate at 5 uM incubated for 24 hrs by annexin V-FITC and propidium iodide staining based flow cytometry analysis (reference value: 6.88+/-2.63%). The class given is functional.
For assay [21], the system named is NCI-H1299. Description: Cytotoxicity against human NCI-H1299 cells assessed as inhibition of cell growth at 50 uM measured after 48 hrs by MTT assay relative to control. In kind it is functional. Also on record: scale not given: the % may be the effect or the level left.
Assay [22] concerns BEAS-2B. Description: Cytotoxicity against human BEAS-2B cells assessed as inhibition of cell growth measured after 48 hrs by MTT assay. In kind it is functional, cell-based. Conditions: beas-2b.

Consider `COC(=O)[C@@]12Oc3ccc(-c4ccc(O)c5c4O[C@]4(C(=O)OC)C(=C(O)C[C@H](C)[C@@H]4O)C5=O)c(O)c3C(=O)C1=C(O)C[C@H](C)[C@H]2O`, for which the Activity with A-375 [1] turned out to be 75%; with NCI-H23 [3] it was 8.85%; in the assay with NCI-H23 [4], 38.43%; with NCI-H23 [5], 0%; in the assay with NCI-H23 [7], 15%; with NCI-H23 [9], 7.2%. For the same molecule, the Activity is 70.2% with Caco-2 [10]; 60.11% in the assay with NCI-H23 [11]; 46.56% with NCI-H23 [12]; “Dose-Dependent Effect” in the assay on NCI-H23 [16]; 52.48% in the assay on NCI-H23 [17]; 38.68% in the assay on NCI-H23 [19]. Further, the Activity with NCI-H23 [20] worked out at 45.71%; in the assay on NCI-H1299 [21] it was 64.9%. Further, the half-maximal inhibitory concentration (IC50) (commonly the concentration that gives 50% inhibition) in the assay with Caco-2 [2] was > 50 µM; in the assay with SW-620 [8], “Not Active”; in the assay with A-375 [13] it was > 50 µM; in the assay on NCI-H23 [14] it was 6.4 µM; in the assay with NCI-H1299 [15], > 50 µM; in the assay on BEAS-2B [22], “Not Active”. Further, the entries for the “Cell growth relative to control” value in the assay with BEAS-2B [6] and in the assay on SW-620 [18] were 151.6% and 98.6%, respectively.
